Data from patent US20110178072A1, “STEREOSPECIFICITY OF METHYLSULFINYL REDUCTION” (priority 2008, published 2011).

Key:
mouse MsrA = target: T1, mouse MsrA (Mus musculus, UniProt Q9D6Y7); assay: Reduction of methylsulfinyl compounds by mouse MsrA (HPLC/GC analysis); format: biochemical; settings: DTT as a reductant
T1 sequence (Q9D6Y7 21-233): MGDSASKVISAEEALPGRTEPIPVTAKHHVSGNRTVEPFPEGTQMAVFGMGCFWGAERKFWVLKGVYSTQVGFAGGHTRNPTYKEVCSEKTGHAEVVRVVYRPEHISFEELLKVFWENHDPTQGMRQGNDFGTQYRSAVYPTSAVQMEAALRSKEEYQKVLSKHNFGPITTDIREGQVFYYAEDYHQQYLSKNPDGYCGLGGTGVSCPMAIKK
Description: (§1) The isothiocyanate group in R,S-sulforaphane reacts with sulfhydryls to form conjugated compounds. First, the compound was treated with excess DTT (which has two free sulfhydryl groups) to conjugate the isothiocyanate group of R,S-sulforaphane or S-sulforaphane with the sulfhydryl group of DTT and the resulting adducts were then used as substrates for mouse MsrA and mouse MsrB2. The reduction of the DTT-sulforaphane adduct was analyzed using HPLC analysis of the adduct with buffer (as control; FIG. 12A), mouse MsrB2 (FIG. 12B), and mouse MsrA (FIG. 12C). The arrows indicate the migration of the DTT-erucin adduct. […] FIG. 13 illustrates the HPLC analysis of the DTT-R-sulforaphane adduct incubated with buffer (as control) (FIG. 13A), mouse MsrA (FIG. 13B), and mouse MsrB2 (FIG. 13C). Again, the arrows show the migration of the DTT-erucin adduct.
(§2) Mesoridazine, which has a mild effect on treating schizophrenia, was examined to determine its reduction by yeast fRMsr, mouse MsrB2, and mouse MsrA (FIG. 14). The peak of m/z 387.6 corresponds to the molecular weight of mesoridazine and the peak of m/z 371.6 corresponds to the molecular weight of thioridazine. FIG. 14B details the HPLC analysis of mesoridazine incubated with mouse MsrB2 and DTT. FIG. 14C provides the HPLC analysis of mesoridazine incubated with yeast fRMsr and DTT. FIG. 14D illustrates the specific activities of various Msrs for the reduction of mesoridazine (left to right): mouse MsrA in the presence of DTT as a reductant, mouse MsrA in the presence of the thioredoxin reducing system, mouse MsrB2 in the presence of DTT, and yeast fRMsr in the presence of DTT.
(§3) The reduction of triclabendazole sulfoxide was examined. This compound has been used to treat liver fluke, Fasciola hepatica and Fasciola gigantica, in sheep, goat, and cattle as a form of triclabendazole. Triclabendazole can be metabolized to several different forms including triclabendazole sulfoxide, which is an oxidized form of methylsulfide group, in biological systems. FIG. 15A provides an HPLC analysis of triclabendazole sulfoxide incubated with mouse MsrA and DTT. The peak of m/z 375.2 and 377.2 correspond to the molecular weight of triclabendazole sulfoxide and the peak of m/z 359.2 and 361.2 correspond to the molecular weight of triclabendazole. FIG. 15B illustrates an HPLC analysis of triclabendazole sulfoxide incubated with mouse MsrB2 and DTT. FIG. 15C details an HPLC analysis of triclabendazole sulfoxide incubated with yeast fRMsr and DTT. FIG. 15D illustrates the specific activities of various Msrs for the reduction of triclabendazole sulfoxide (left to right): mouse MsrA in the presence of DTT as a reductant, mouse MsrA in the presence of the thioredoxin reducing system, mouse MsrB2 in the presence of DTT, and yeast fRMsr in the presence of DTT.
(§4) Another methylsulfinyl-containing drug, sulmazole, was tested as a substrate for Msrs. This drug is pharmacologically active as a cardiotonic agent and is a phosphodiesterase inhibitor. FIG. 16A details an HPLC analysis of sulmazole incubated with mouse MsrA and DTT. The peak of m/z 288.3 corresponds to the molecular weight of sulmazole and the peak of m/z 272.3 corresponds to the molecular weight of reduced form of sulmazole. FIG. 16B illustrates an HPLC analysis of sulmazole incubated with mouse MsrB2 and DTT. FIG. 16C provides an HPLC analysis of sulmazole incubated with yeast fRMsr and DTT. FIG. 16D details the specific activities of various Msrs for the reduction of sulmazole (left to right): mouse MsrA in the presence of DTT as a reductant, mouse MsrA in the presence of the thioredoxin reducing system, mouse MsrB2 in the presence of DTT, and yeast fRMsr in the presence of DTT.
DMSO, which is used as a preservative for stem cells, solvent for drugs, and a drug itself with anti-inflammatory and free radical scavenging properties, was studied for its reduction by Msrs. FIG. 17A details a GC analysis of DMSO incubated with mouse MsrA and DTT. […]

mouse MsrB2 = mouse MsrB2 (Mus musculus, UniProt Q78J03); assay: Reduction of methylsulfinyl compounds by mouse MsrB2 (HPLC/GC analysis); format: biochemical; settings: in the presence of DTT
Chain of mouse MsrB2 (Q78J03 43-175): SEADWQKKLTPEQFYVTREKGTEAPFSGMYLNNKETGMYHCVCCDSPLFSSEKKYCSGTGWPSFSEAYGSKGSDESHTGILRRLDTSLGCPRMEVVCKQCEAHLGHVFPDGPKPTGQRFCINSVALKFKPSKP
Description: as §1, §2, §3
as §4, with “FIG. 16D details the specific activities of various Msrs for the reduction of sulmazole (left to right): mouse MsrA in the presence of DTT as a reductant, mouse MsrA in the presence of the thioredoxin reducing system, mouse MsrB2 in the presence of DTT, and yeast fRMsr in the presence of DTT.” left out

selenoproteins = assay: 75Se metabolic labeling of SK-Hep1 cells grown on Met and Met sulfoxide media; format: cell-based, human; settings: 0.1 mM of each amino acid
Description: ^75 Se Metabolic labeling—SK-Hep1 cells were plated in 6-well plates at 7.5×10^4 cells/well in 1.5 mL of regular DMEM medium. After 24 hours, cells were washed with PBS and the medium was changed to modified DMEM media containing Met, Met-SO, Met-RO, or Met-RSO (0.1 mM of each amino acid). 0.01 mCi of freshly neutralized [^75Se]selenious acid (specific activity 1,000 Ci/mmol, University of Missouri Research Reactor) was added in each well at 48 hours after changing the medium and cells were incubated at 37° C. for 24 hours in 5% CO2 atmosphere, followed by harvesting the cells. Cell extracts (30 μg of total protein) were electrophoresed on 10% Bis-Tris gels and transferred onto PVDF membranes (Invitrogen). The ^75Se radioactivity pattern was visualized by using a PhosphorImager (GE Health Care).

CBS = assay: Western blot analysis of CBS in SK-Hep1 cells grown on Met and Met sulfoxide media; format: cell-based, human; settings: SK-Hep1 cells, 0.1 mM
Description: Analysis of SK-Hep1 and fRMsr-transfected SK-Hep1 cells—SK-Hep1 and fRMsr-transfected SK-Hep1 cells were plated in 6-well plates at 7.5×10^4 cells/well in regular DMEM medium. The medium was changed to Met-free DMEM supplemented with either Met or individual Met sulfoxides at 24 hours after plating. Cells were then collected every 24 hours until 96 hours. Protein concentration was measured by the Bradford assay and the samples were probed by standard immunoblot assays with polyclonal MsrA (kindly provided by Bertrand Friguet), cystathionine beta synthase (CBS) (kindly provided by Ruma Banerjee), and activating transcription factor 3 (ATF3) (Santa Cruz Biotechnology) antibodies.

SK-Hep1 cells = assay: Growth and morphology of SK-Hep1 cells in Met-free DMEM supplemented with Met or Met sulfoxides (MTS proliferation assay, microscopy); format: cell-based, human; settings: Met-free DMEM supplemented with 0.1 mM of the compound
Description: Cell culture—SK-Hep1 (ATCC: HTB-52™) and fRMsr-transfected SK-Hep1 cells were cultured in DMEM or Met-free DMEM (GIBCO) media, supplemented with 0.1 mM Met, 0.1 mM Met-RO, 0.1 mM Met-SO, or 0.1 mM Met-RSO. […] Thus, 0.1 mM Met sulfoxides were used in the experiments described below. Cell culture experiments, with the exception of a proliferation assay, were carried out in 6-well plates, and cells were maintained at 37° C. in a 5% CO2 atmosphere. Proliferation Assay—Cell growth was quantified using colorimetric MTS assay (Promega). Cells in regular DMEM medium were plated in 96-well plates at 5×10^3 cells/well, washed with PBS, and specialized DMEM media were added that contained Met, Met-SO, Met-RO, or Met-RSO 24 hours after plating. To assay for cell proliferation, a tetrazolium compound [3-(4,5-dimethylthiazol-2-yl)-5-(3-carboxymethoxyphenyl)-2-(4-sulfophenyl)-2H-tetrazolium, inner salt; MTS] and an electron coupling reagent (phenazine methosulfate; PMS) were mixed according to the manufacturer's protocol and then 20 μL of the mixture were added to 100 μL of phenol red-excluded media that further replaced cell culture media. After 90 minutes of incubation at 37° C. in the atmosphere of 5% CO2, cell proliferation was measured at indicated time periods from 0 to 96 hours at 450 nm in a plate reader. Direct counting of viable cells using 0.2% trypan blue was done in 6-well plates. Microscopy—A Nikon TE-300 Widefield Microscope was used to prepare images of SK-Hep1 cells grown on different Met and Met sulfoxide media. Microscopy analyses were carried out in the University of Nebraska Microscopy Core Facility.

[1] = test system: MsrA-knockdown SK-Hep1 cells; assay: Growth of MsrA-knockdown SK-Hep1 cells on Met and Met sulfoxide media; format: cell-based, human; settings: 0.1 mM, 96 hours
Description: Proliferation Assay—Cell growth was quantified using colorimetric MTS assay (Promega). Cells in regular DMEM medium were plated in 96-well plates at 5×10^3 cells/well, washed with PBS, and specialized DMEM media were added that contained Met, Met-SO, Met-RO, or Met-RSO 24 hours after plating. To assay for cell proliferation, a tetrazolium compound [3-(4,5-dimethylthiazol-2-yl)-5-(3-carboxymethoxyphenyl)-2-(4-sulfophenyl)-2H-tetrazolium, inner salt; MTS] and an electron coupling reagent (phenazine methosulfate; PMS) were mixed according to the manufacturer's protocol and then 20 μL of the mixture were added to 100 μL of phenol red-excluded media that further replaced cell culture media. After 90 minutes of incubation at 37° C. in the atmosphere of 5% CO2, cell proliferation was measured at indicated time periods from 0 to 96 hours at 450 nm in a plate reader. Direct counting of viable cells using 0.2% trypan blue was done in 6-well plates. Knockdown of MsrA in SK-Hep1 cells by siRNA—Double stranded siRNAs (Dharmacon) for targeting human MsrA mRNA were used to knockdown this gene in SK-Hep1 cells. Cells were transfected with siRNA by using DharmaFECT™ Transfection Reagent (Dharmacon) according to the manufacturer's protocol. Proliferation of these cells was assayed 60 hours after transfection in comparison with control transfected cells.

yeast fRMsr = target: T2, yeast fRMsr (Saccharomyces cerevisiae, UniProt P36088); assay: Activity assay of purified recombinant yeast fRMsr towards free Met sulfoxides (HPLC, OPA derivatization); format: biochemical, S. cerevisiae; settings: recombinant His-tagged yeast fRMsr
T2 construct: His-tag (C); made in house; host or cells: E. coli BL21 (DE3), pET21b
T2 sequence (P36088 1-180): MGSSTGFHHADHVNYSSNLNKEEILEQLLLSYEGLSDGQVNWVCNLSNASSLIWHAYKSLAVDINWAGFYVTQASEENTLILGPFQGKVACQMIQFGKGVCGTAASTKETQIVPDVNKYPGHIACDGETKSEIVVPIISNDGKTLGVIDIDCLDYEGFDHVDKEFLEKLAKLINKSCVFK
Excerpt: Cloning and expression of yeast fRMsr—Characterization of S. cerevisiae fRMsr (YKL069W) is described in Le, D. T., et al. (2009) Functional analysis of free methionine-R-sulfoxide reductase from Saccharomyces cerevisiae. J Biol Chem., 284(7), 4354-4364. Briefly, a yeast fRMsr cDNA, which encodes a protein homologous to fRMsr from E. coli, was amplified from S. cerevisiae genomic DNA and subcloned into pET21b vector (Novagen) using primers 5′-AAACATATGATGGGCTCATCAACCGGGTTTC-3′ (sense; SEQ ID NO:1) and 5′-AAGCGGCCGCGACACATGATTTATTAATTAATTTAGCAAG-3′ (antisense; SEQ ID NO:2). After transformation into BL21 (DE3) E. coli, the subcloned sequence was verified by DNA sequencing. Cells with the plasmid in 500 mL LB medium containing 100 μg/mL ampicillin were grown until OD600 reached 0.6-0.8, followed by addition of IPTG to 0.3 mM. Protein expression was at 30° C. for 4 hours, followed by harvesting cells by centrifugation at 4,000 rpm for 5 minutes. Cells were washed with PBS and stored at −70° C. until use.
To purify the protein, a cell pellet was dissolved in resuspension buffer (Tris-HCl, pH 7.5, 15 mM imidazole, 300 mM NaCl), and PMSF was added to a final concentration of 0.5 mM. After sonication, the supernatant was collected by centrifugation at 8,000 rpm for 30 minutes. The supernatant was loaded onto a cobalt Talon resin (Clontech) pre-equilibrated with resuspension buffer. Following washing with the same buffer, the protein was eluted with elution buffer (Tris-HCl, pH 7.5, 300 mM imidazole, 300 mM NaCl). Fractions containing yeast fRMsr were pooled together and dialyzed overnight against PBS in a dialysis cassette (Pierce).
Activity assays of fRMsr—Reaction mixture (40 μL) included 50 mM DTT, 1 mM substrate (Met-RO or Met-SO), and purified enzyme or cell lysate prepared by treatment with CelLytic™M cell lysis reagent (Sigma). 20 μL of the reaction mixture was mixed with 2 μL of TCA and subjected to OPA derivatization as described above and then injected onto the column to measure endogenous Met level in the samples. An additional 20 μL from the same original reaction mixture were incubated at 37° C. for 30 minutes and then subjected to OPA derivatization by the same procedure using TCA. After derivatization of the sample (2-5 μL) by adding OPA solution to 100 μL as a final volume, 50 μL of the mixture were subjected to an HPLC separation as described above.

Reduction by mouse MsrA (mouse MsrA)	Reduction by mouse MsrB2 (mouse MsrB2)	Activity of recombinant yeast fRMsr protein towards the substrate (yeast fRMsr)	SMILES	Selenoprotein patterns (75Se labeling) (selenoproteins)	Growth of SK-Hep1 cells (SK-Hep1 cells)	also measured
–	–	inactive	CN(C)c1ccc(/N=N/c2ccc(S(=O)(=O)N[C@@H](CC[S@@+](C)[O-])C(=O)O)cc2)cc1 [dabsyl-Met-RO]	–	–	–
–	–	inactive	CN(C)c1ccc(N=Nc2ccc(S(=O)(=O)N[C@@H](CC[S@+](C)[O-])C(=O)O)cc2)cc1 [dabsyl-Met-SO]	–	–	–

Continued, compound first:

SMILES	Reduction by mouse MsrA (mouse MsrA)	Reduction by mouse MsrB2 (mouse MsrB2)	Activity of recombinant yeast fRMsr protein towards the substrate (yeast fRMsr)	Selenoprotein patterns (75Se labeling) (selenoproteins)	Growth of SK-Hep1 cells (SK-Hep1 cells)	also measured
C[S@@+]([O-])CCCCNC(=S)SCC(O)C(O)CS (stereo partly drawn) [DTT-R-sulforaphane adduct]	cannot be reduced	cannot be reduced	–	–	–	–
C[S@+]([O-])CCCCNC(=S)SCC(O)C(O)CS (stereo partly drawn) [DTT-S-sulforaphane adduct]	can be reduced	not by mouse MsrB2	–	–	–	–
CSCC[C@H](N)C(=O)O [Met, methionine]	–	–	–	No difference was observed	grew best	Expression of CBS (CBS): maintained stable CBS levels; Growth of MsrA-deficient cells [1]: still supported their growth
C[S+]([O-])CC[C@H](N)C(=O)O (stereo partly drawn) [Met-RSO, L-Met-R,S-sulfoxide]	–	–	–	No difference was observed	could also proliferate	–
